Data from PMC7422938 (Chemical research in toxicology, 2020).
“Also recorded” adds a separate entry of the source.

Molecular target: T1, microsomal recombinant human cytochrome P450 2A6 (CYP2A6) (Homo sapiens, UniProt P11509)
T1 sequence (P11509 1-494): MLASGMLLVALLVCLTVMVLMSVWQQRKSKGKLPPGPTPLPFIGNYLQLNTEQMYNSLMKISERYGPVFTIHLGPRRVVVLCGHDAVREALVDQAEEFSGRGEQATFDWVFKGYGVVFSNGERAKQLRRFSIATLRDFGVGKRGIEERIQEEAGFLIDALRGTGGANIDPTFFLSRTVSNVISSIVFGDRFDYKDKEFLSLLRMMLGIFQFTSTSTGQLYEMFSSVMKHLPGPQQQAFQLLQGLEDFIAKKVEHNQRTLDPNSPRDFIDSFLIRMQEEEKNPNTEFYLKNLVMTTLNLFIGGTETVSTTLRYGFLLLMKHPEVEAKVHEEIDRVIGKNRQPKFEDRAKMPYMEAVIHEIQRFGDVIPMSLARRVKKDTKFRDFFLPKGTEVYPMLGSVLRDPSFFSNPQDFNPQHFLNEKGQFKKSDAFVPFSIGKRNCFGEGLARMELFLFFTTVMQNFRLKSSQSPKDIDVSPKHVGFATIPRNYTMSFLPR
Experiment: Vivid fluorescence-based CYP2A6 inhibition screening
Format: biochemical

Compound | IC50 [µM] | CYP2A6 inhibition (flavoring agent at 500 μM) | CYP2A6 inhibition (flavoring agent up to 500 μM (highest concentration))
O=Cc1ccccc1 [Benzaldehyde, benzaldehyde] | 3 |  | 
O=C/C=C/c1ccccc1 [Cinnamaldehyde, trans-cinnamaldehyde] | 1.1 |  | 
CCOc1cc(C=O)ccc1O [Ethyl vanillin, ethyl-vanillin] | 69.4 | near-maximal inhibition | 
CC(=O)OCCC(C)C [Isoamyl Acetate, isoamyl acetate] | > 500 |  | negligible inhibition; also recorded: no inhibition
COc1cc(C=O)ccc1O [Vanillin, vanillin] | 70 | near-maximal inhibition | 
